Target: T1, human CYP11B2 (Homo sapiens, UniProt P19099)
T1 construct: expressed in transfected cells; host or cells: human renal leiomyoma G402 cell line (monoclonal cells overexpressing human CYP11B2)
T1 sequence (P19099 25-503): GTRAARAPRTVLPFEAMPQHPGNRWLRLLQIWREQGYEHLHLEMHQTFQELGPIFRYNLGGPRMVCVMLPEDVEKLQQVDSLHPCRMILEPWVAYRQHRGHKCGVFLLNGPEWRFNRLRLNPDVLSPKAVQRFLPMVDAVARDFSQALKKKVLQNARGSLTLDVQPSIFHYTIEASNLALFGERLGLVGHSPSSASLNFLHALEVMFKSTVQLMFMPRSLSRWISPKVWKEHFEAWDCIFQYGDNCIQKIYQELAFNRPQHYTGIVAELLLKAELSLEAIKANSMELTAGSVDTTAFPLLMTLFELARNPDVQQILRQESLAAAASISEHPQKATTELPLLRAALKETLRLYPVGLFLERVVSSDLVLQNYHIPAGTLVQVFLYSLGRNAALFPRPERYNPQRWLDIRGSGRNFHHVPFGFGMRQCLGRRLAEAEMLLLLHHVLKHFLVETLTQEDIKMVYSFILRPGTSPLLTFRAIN
Test: In vitro activity assay of monoclonal cells overexpressing human CYP11B2
Type: cell-based
Settings: G402 cells overexpressing human CYP11B2; substrate 11-deoxycorticosterone; 16 hours; aldosterone by LCMS/MS
Protocol: The human renal leiomyoma G402 cell line overexpressing human CYP11B2 was selected to serve as a compound activity screening system.
• 2) Compound details: The test compound was prepared as a 10 μM working concentration using DMSO.
Day 1: Cells were digested, and human renal leiomyoma G402 cells overexpressing human CYP11B2 were resuspended to 1×10^5 cells/mL, with 100 μL seeded into a 96-well plate.
Day 2: The medium was replaced with DMEM/F12 containing 2.5% charcoal-stripped fetal bovine serum; test compounds were added: 5 μL of test compound was added to the cell culture medium to achieve final concentrations of 10000, 2500, 625, 156.25, 39.06, 9.77, 2.44, 0.61, 0.15, and 0 nM (with a DMSO content of 0.1%).
After one hour, the substrate was added: 30 mM 11-deoxycorticosterone was diluted 1500-fold with culture medium, and 5 μL was dispensed per well to achieve a final concentration of […], followed by incubation for 16 hours.
Day 3: The cell supernatant was collected and added to 200 μL of a methanol solution containing internal standards (internal standards: 35 ng/mL ketoprofen or 7.5 ng/mL carbamazepine or 5 ng/mL diphenhydramine or 10 ng/mL tolbutamide). The mixture was vortexed and centrifuged (4000×g, 4° C., 5 minutes). Then, 100 μL of the supernatant was taken and mixed with 100 μL of pure water. The mixture was centrifuged (4000 g, 4° C., 15 min), and the supernatant was analyzed by ESI-LCMS/MS. • 4) Data analysis:
Ratio=Aldosterone peak area/Internal standard peak area
Control activity %=(Ratio test compound/Ratio DMSO)×100%
“Ratio test compound” represents the Ratio values at different concentrations of the test compound.
“Ratio DMSO” represents the Ratio value without the addition of the test compound. • X=Log (compound concentration) • Y=Control activity %
The IC50 of the test compound was determined by fitting to a nonlinear regression equation using XLfit 5.5.0.

IC50: 14.2 nM
Structure (SMILES): CCC(=O)N[C@H]1CCOc2c(-c3ccc4c(c3)CCC(=O)N4C)cncc21 (single isomer, unassigned) [Compound 037]
